Test results from patent US12029682B2, “Spray ejector mechanisms and devices providing charge isolation and controllable droplet charge, and low dosage volume ophthalmic administration” (EYENOVIA, INC., priority 2012, dated 2024).
“Also recorded” adds a separate entry of the source.

Assays:
Format in all cases: in vivo, beagle dog
glaucomatous beagles [1] = test: Pupil diameter (PD), Jameson Caliper, in glaucomatous beagles
glaucomatous beagles [2] = test: Intraocular pressure (IOP), TonoVet, in glaucomatous beagles
Experimental: (§1) One glaucomatous beagle dog (female, aged 3 years) from the University of Florida MacKay Colony of Glaucomatous Beagles was chosen for this study. The animal was rested a minimum of one week before starting the study. Prior to the commencement of the study, the animal was assigned one eye to receive 1.5 μl of 0.005% latanoprost and the contralateral eye to remain untreated as a control. The basic measurement protocol was followed at all times and performed by the same operator. PD was measured via Jameson Caliper (mm horizontally). IOP was measured using a TonoVet instrument with clean probe (iCare). IOP and PD were measured at time 0, 1, 2, 4, 7 and 18 hours daily for two days. Immediately after the time 0 measurement, the animal received 1.5 μl of 0.005% latanoprost in its assigned eye with a spray device. The contralateral eye was left untreated. The spray device was checked for accuracy before and after every use, and required a 10% delivered dose accuracy in pretreatment. Standard measurements continued throughout each day at time 1, 2, 4, 7 and 18 hours. Possible endpoints included, but were not limited to, excessive ocular irritation, ocular damage, and other illness or injury. No statistical crossover was utilized for this study.
as §1, with “study.” for “study. The animal was rested a minimum of one week before starting the study.”, “receive 3.0” for “receive 1.5”, “0 measurements,” for “0 measurement,”, “animal was administered 3.0” for “animal received 1.5”, “eye using” for “eye with”, “spray ejector” for “spray”
All animals were rested for a minimum of one week before starting the trials. IOP and pupil diameter (PD) were measured 5 times (at 0, 1, 2, 4, and 7 hours) daily for four days (study days 1-4) to establish initial baseline levels. The basic measurement protocol was followed at all times and performed by the same operator. PD was measured via Jameson Caliper (mm horizontally). IOP was measured with a TonoVet instrument with clean probe (iCare). After three rest days, one eye was randomly assigned to receive 9 μl of 0.005% latanoprost delivered via a spray ejector device, and the contralateral eye was administered traditional latanoprost from a traditional eyedropper container (26-30 μl).
On study days 5-9, IOP and PD measurements were taken at approximately 0900 h (time 0). Immediately after time 0 measurements, each animal received a once-daily dose of 9 μl of generic 0.005% latanoprost in its assigned eye via the spray ejector device. The contralateral eye received a clinical dose (one drop) of the same commercially available topical drug from a traditional eyedropper (positive control). The spray ejector device was checked for accuracy before and after every use and required a 10% delivered dose accuracy in pretreatment. Standard measurements continued throughout each day at 0, 1, 2, 4, and 7 hours. Possible endpoints included, but were not limited to, excessive ocular irritation, ocular damage, and other illness or injury. No statistical crossover was utilized for this study. […]

glaucomatous beagles [3] = test: Ocular irritation observations in glaucomatous beagles
Experimental: Active drug delivery begins on study day eight. For five days, IOP and PD measurements are taken at 0900. Immediately after 0900 measurements (time 0), each animal receives 6 μl of generic latanoprost in its assigned eye with the ejector device, followed by a second dosing 3 minutes later of an additional 6 μl (to avoid overloading the conjunctival sac). The contralateral eye receives a clinical dose (one drop) of the same commercially-available topical drug from FDA approved container (positive control). The ejector device is checked for accuracy before and after every use (Table 1). Standard measurements continue throughout each day (at 0:30, 0:45, 1, 2, 7 hrs). Possible endpoints include, but are not limited to, excessive ocular irritation, ocular damage, or other illness and injury. […]
On study days 5-9, IOP and PD measurements were taken at approximately 0900 h (time 0). Immediately after these measurements, each animal received 6 μl of 0.03% bimatoprost in its assigned eye via the spray ejector device. The contralateral eye received a clinical dose (one drop) of the same commercially available topical drug from a traditional eyedropper (positive control). The spray ejector device was checked for accuracy before and after every use and required a 10% delivered dose accuracy in pretreatment. Standard measurements continued throughout each day at 0, 1, 2, 4, and 7 hours. Possible endpoints included, but were not limited to, excessive ocular irritation, ocular damage, and other illness or injury. No statistical crossover was utilized for this study.
Ophthalmic examinations (slit lamp with fluorescein and indirect ophthalmoscopy) were performed on the eyes of each animal prior to Study Day 1. Ocular findings were scored according to the McDonald-Shadduck Score System. Ocular findings were recorded using a standardized data collection sheet. Macroscopic observations were recorded in accordance with the Draize Scale for Scoring Ocular Lesions. Animals were assigned treatments based on basic randomization prior to study day one.
Following a 7 day rest period, the eye choice was reversed. Measurements of IOP, heart rate and pupil diameter (PD) were made at 0:15, 0:30, 0:45, 1, 2, 4, 7, and 18 hours in the primary and crossover study. A veterinary ophthalmologist evaluated each test subject before and after the study for evidence of ocular side effects.
Ophthalmic examinations (slit lamp with fluorescein and indirect ophthalmoscopy) were performed on the eyes of each animal prior to study day 1. Ocular findings were scored according to the McDonald-Shadduck score system and macroscopic observations were recorded in accordance with the Draize scale for scoring ocular lesions. Ocular findings were recorded using a standardized data collection sheet.

glaucomatous beagles [4] = test: Intraocular pressure (IOP), TonoVet, in glaucomatous beagles; details: for IOP decrease: 6.0 μl at 0.025% via spray ejector device and 0.005% eyedropper had similar results
[5] = 12 μl of 0.005% BID via spray ejector device
[6] = 1.5 μl of 0.005% once daily, spray ejector device, one dog, by hour 2
[7] = 3.0 μl of 0.005% once daily, spray ejector device, one dog, by hour 2

SMILES: CC(C)OC(=O)CCC/C=C\C[C@@H]1[C@@H](CC[C@@H](O)CCc2ccccc2)[C@H](O)C[C@@H]1O [latanoprost]
- duration of PD constriction vs eyedropper (glaucomatous beagles [1]; [5]): remained constricted much longer
- PD: spray ejector device 6.0 μl at 0.025% vs 0.005% eyedropper (glaucomatous beagles [1]; any point in the study (p=0.943)): no significant differences
- minimum PD (glaucomatous beagles [1]; both treatments (spray ejector device BID, eyedropper), by time 1 hour on most days): pinpoint
- PD (glaucomatous beagles [1]; by time 1 hour each day, 6.0 μl at 0.025% spray ejector device and 0.005% eyedropper): 0 mm
- IOP in the treated eye (glaucomatous beagles [2]; [6]): 11 mmHg
- effectiveness at lowering IOP and constricting the pupil vs traditional therapy (glaucomatous beagles [2]; 1.5 μl of 0.005% via Whisper MDD): as effective at lowering IOP and constricting the pupil as traditional therapy
- time of maximum decrease in IOP (glaucomatous beagles [2]; 3.0 μl of 0.005% once daily, spray ejector device, one dog): hour 7 on day 2
- decrease in IOP from the initial value (glaucomatous beagles [2]; [7]): 12 mmHg
- effectiveness at lowering/controlling IOP vs traditional eyedropper therapy (glaucomatous beagles [2]; 9 μl of 0.005% once daily via spray ejector device vs one drop (26-30 μl), 5 days, 7-hour period): as effective at lowering IOP and constricting the pupil as traditional therapy; also recorded: as effective at controlling IOP as traditional eyedropper therapy
- maximum decrease in IOP (glaucomatous beagles [2]; 12 μl of 0.005% BID via spray ejector device, study day 7 (first day of instillation)): 28 mmHg
- IOP level (glaucomatous beagles [2]; 12 μl of 0.005% BID via spray ejector device, study day 7, hour 7): 15.5±2.2 mmHg
- average daily change in IOP (maximum minus minimum) (glaucomatous beagles [2]; one drop of 0.005% by eyedropper): 14.6 mmHg
- IOP: ejector device treatment vs traditional treatment (glaucomatous beagles [2]; two 6 μl doses of 0.005% via ejector device vs one drop by eyedropper): no significant differences; also recorded: statistically indistinguishable
- ocular irritation, injury, or discomfort (glaucomatous beagles [3]; 0.005%, either treatment (spray ejector device BID, eyedropper)): no significant reports of ocular irritation, injury, or discomfort
- excessive eye irritation or other eye issues (glaucomatous beagles [3]; 0.005%, ejector device 12 μl and eyedropper): no reports of excessive eye irritation or other eye issues
- irritation (glaucomatous beagles [3]; 6.0 μl at 0.025% spray ejector device and 0.005% eyedropper): Normal irritation caused by prostaglandin analogues was present
- irritation vs eyedropper-treated eyes (glaucomatous beagles [3]; 9 μl of 0.005% via spray ejector device): less than that observed in the eyedropper-treated eyes
- irritation to the eye with the lower dosage (glaucomatous beagles [3]; [5]): less irritation to the eye
- irritation vs eyedropper administration (glaucomatous beagles [3]; five times (5×) concentration (0.025%) via spray ejector device): no more irritation than that occurring following eyedropper administration
- conjunctival irritation (glaucomatous beagles [3]; traditional treatment eyes (eyedropper), related to prostaglandin use): Some conjunctival irritation was noted
- duration of action vs spray ejector device (glaucomatous beagles [4]; 0.005%, one drop (26-30 μl) by eyedropper): greater
- maximum decrease in IOP from the initial value (glaucomatous beagles [4]; [6]): 16 mmHg
- IOP in the treated eye (glaucomatous beagles [4]; [7]): 19 mmHg
- effectiveness at lowering IOP and constricting the pupil vs traditional eyedropper therapy (glaucomatous beagles [4]; 3.0 μl of 0.005% via spray ejector device): as effective at lowering IOP and constricting the pupil as traditional eyedropper therapy
- IOP values vs baseline (glaucomatous beagles [4]; 9 μl of 0.005% once daily via spray ejector device): significantly lower than baseline
- average daily change / average fluctuation in IOP (maximum minus minimum) (glaucomatous beagles [4]; [5]): 7.6 mmHg
- average fluctuation in IOP (glaucomatous beagles [4]; [5]): 30%
- morning IOP spike compared to eyedropper delivery (glaucomatous beagles [4]; [5]): consistently prevented the anticipated morning IOP spike
- maximum IOP (glaucomatous beagles [4]; 12 μl of 0.005% BID via spray ejector device, day 8): 17.2±3.0 mmHg
- minimum IOP (glaucomatous beagles [4]; 12 μl of 0.005% BID via spray ejector device, day 8, hour 7): 13.6±1.2 mmHg
- maximum IOP (glaucomatous beagles [4]; 12 μl of 0.005% BID via spray ejector device, day 9): 26.2±6.3 mmHg
- minimum IOP (glaucomatous beagles [4]; 12 μl of 0.005% BID via spray ejector device, day 9, hour 4): 16.2±1.5 mmHg
- maximum IOP (glaucomatous beagles [4]; 12 μl of 0.005% BID via spray ejector device, day 10): 27.5±3.5 mmHg
- minimum IOP (glaucomatous beagles [4]; 12 μl of 0.005% BID via spray ejector device, day 10, hour 4): 14.0±1.3 mmHg
- maximum IOP (glaucomatous beagles [4]; 12 μl of 0.005% BID via spray ejector device, day 11): 26.5±2.8 mmHg
- minimum IOP (glaucomatous beagles [4]; 12 μl of 0.005% BID via spray ejector device, day 11, hour 7): 14.7±0.9 mmHg
- effectiveness at lowering/controlling IOP vs traditional eyedropper therapy (glaucomatous beagles [4]; 30 μl of 0.005% once daily via spray ejector device, 2 dogs): as effective at lowering IOP and constricting the pupil as the traditional eyedropper therapy; also recorded: as effective in controlling IOP as traditional eyedropper therapy
- duration of action vs eyedropper (glaucomatous beagles [4]; 30 μl of 0.005% via spray ejector device, pilot study): trend toward increased duration of action
- IOP: spray ejector device 6.0 μl at 0.025% vs 0.005% eyedropper (glaucomatous beagles [4]; any point in the study (p=0.823)): no significant differences; also recorded: statistically equivalent
- IOP decrease (glaucomatous beagles [4]; first day of the study): approximately 45.4 mmHg
- maximum decrease in IOP (glaucomatous beagles [4]; one drop of 0.005% by eyedropper, over the 5 days of the study): 27.5 mmHg
- IOP decrease (glaucomatous beagles [4]; subsequent days): ~24.7 mmHg
